Measured values reported in patent US20110294861A1, “METHOD OF TREATMENT OF HEREDITARY HEMOCHROMATOSIS” (NOVARTIS AG, priority 2006, published 2011).

Tests used:
[1] = Plasma half life within the human body; assay type: in vivo
[2] = Exposure of Compound I in mice compared with human studies; assay type: in vivo; details: mice versus human studies
HJV−/− mice = test: Iron overload in a murine model of juvenile hemochromatosis (organ iron by ICP-OES); assay type: in vivo
Experimental: Compound I, a novel tridentate oral iron chelator, is effective in the treatment of patients with transfusional iron overload and it has not been investigated in primary iron overload. We sought to examine spontaneous iron loading and the effect of Compound I upon the removal of iron in HJV−/− mice with iron overload.
Methods: Inductively-Coupled Plasma Optical Emission Spectrometry (ICP-OES, measurement of elemental iron) determinations in liver, heart, spleen and pancreas were performed at week 8 (study start), 14, 20 and 28 in HJV−/− and wild type (wt) mice (n=6-8), subsequent to MRI measurements in heart and liver. Starting at week 20 three groups of HJV−/− animals received daily 0 (vehicle), 30 or 100 mg/kg Compound I, control wt-mice remained untreated. Iron loading was observed up to 28 weeks (including vehicle group) and the effects of Compound I were assessed by comparing the 28-week groups. MRI R2* measurements were performed using a 4.7T MR imager. For the myocardial and hepatic R2* assessments single slice, ECG gated gradient echo images and single slice transversal gradient echo images were acquired, respectively.

[3] = subcutaneous, 3 patients with HH; compared with weekly phlebotomy, e.g. 500 ml; cited from earlier work
[4] = in vivo; cited from earlier work
[5] = 100 mg/kg daily, week 20 to 28, HJV−/− mice, ICP-OES
[6] = hemojuvelin knock out mouse, within 8 weeks of treatment (conclusion)

Row | Compound | half-life [1] | lower exposure in mice [2] | effects on organ iron load (HJV−/− mice; 30 mg/kg daily, HJV−/− mice) | effects on organ iron load in liver and heart (HJV−/− mice; 100 mg/kg daily, HJV−/− mice) | pancreas iron (HJV−/− mice; 100 mg/kg daily, HJV−/− mice) | heart iron reduced as compared to the (HJV−/−)-vehicle treated group (HJV−/− mice; [5]) | liver iron reduced as compared to the (HJV−/−)-vehicle treated group (HJV−/− mice; [5]) | liver and heart iron (HJV−/− mice; [6]) | pancreatic iron load (HJV−/− mice; [6]) | effectiveness of treatment of iron overload [3] | half life within the bloodstream [4]
1 | O=C(O)c1ccc(-n2nc(-c3ccccc3O)nc2-c2ccccc2O)cc1 [Compound I, 4-[3,5-bis(2-hydroxyphenyl)-[1,2,4]triazol-1-yl]benzoic acid] | 8 to 16 h | 6-9 times | modest | quite pronounced | clear trend to lower levels | 41% | 63% | significantly reduced | trend to improvement | – | –
2 | CC(=O)N(O)CCCCCNC(=O)CCC(=O)N(O)CCCCCNC(=O)CCC(=O)N(O)CCCCCN [DFO, desferrioxamine] | – | – | – | – | – | – | – | – | – | as effective as weekly phlebotomy | short
